The values that follow come from ChEMBL document CHEMBL1201862, “PubChem BioAssay data set” (2004).

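The compound was tested at five concentrations on cells cultured in 96-well plates, with a 48-hour exposure period. GI50: concentration for 50% inhibition of growth.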 Active and inactive are the calls of the source. Rule as the data show it: active = GI50 up to about 1.1 µM and inactive = higher.

Some test systems named below: EKVX; HL-60; HOP-62; HT-29; Hs-578T; K562; MCF7; NCI-H522; OVCAR-3; OVCAR-5; OVCAR-8; SK-MEL-5; SNB-75; T47D; TK-10; UACC-62; UO-31; OVCAR-4; Malme-3M.
Common to all, as to assay: inhibition of tumour cell growth, NCI panel, 48 h

On to `O=C(CCc1ccc(O)c(O)c1)NCCc1cc(O)cc(O)c1`, for which the GI50 is > 100 µM (inactive) in the test with EKVX; > 100 µM (inactive) in the test on HL-60; > 100 µM (inactive) with HOP-62; > 100 µM (inactive) in the test with HT-29; > 100 µM (inactive) in the test on Hs-578T; 25.7 µM (inactive) with K562. The GI50 with MCF7 was 66.8 µM (inactive); in the test with NCI-H522 it was 71 µM (inactive); in the test with OVCAR-3, > 100 µM (inactive); in the test with OVCAR-5, > 100 µM (inactive); with OVCAR-8 it was > 100 µM (inactive); with SK-MEL-5, > 100 µM (inactive). Further, the GI50 was > 100 µM (inactive) in the test on SNB-75; > 100 µM (inactive) in the test with T47D; > 100 µM (inactive) with TK-10; > 100 µM (inactive) in the test on UACC-62; 63.5 µM (inactive) with UO-31.

Regarding `COc1ccc(-c2cc(-c3cc(C)cc(Br)c3O)no2)cc1`, the GI50 in the test with EKVX was 25.2 µM (inactive); with HL-60 it was 47.9 µM (inactive); in the test with HOP-62 it was 8.67 µM (inactive); with HT-29, 31.6 µM (inactive); with Hs-578T, 4.86 µM (inactive); in the test on K562, 14.1 µM (inactive). Also, the GI50 in the test on MCF7 is 15.7 µM (inactive); with NCI-H522 it was 3.98 µM (inactive); in the test on OVCAR-3, 6.38 µM (inactive); in the test on OVCAR-4, 3.37 µM (inactive); in the test on OVCAR-5 it was 30.4 µM (inactive); in the test with OVCAR-8 it was 4.31 µM (inactive). The GI50 with SK-MEL-5 was 7 µM (inactive); with SNB-75 it was 2.86 µM (inactive); in the test on T47D, 5.38 µM (inactive); in the test with TK-10, 19.8 µM (inactive); in the test with UACC-62, 6.47 µM (inactive); in the test with UO-31, 12.5 µM (inactive).

On to `CCOC(=O)C(CO)c1nc2c([nH]c1=O)c(=O)n(C)c(=O)n2C` (stereo not drawn), for which the GI50 in the test with EKVX, with HL-60, with HOP-62, with HT-29, in the test with Hs-578T and in the test on K562 was > 100 µM (inactive) in each case. For the same compound, the GI50 with MCF7, in the test with Malme-3M, in the test with NCI-H522, in the test on OVCAR-3, with OVCAR-5 and with OVCAR-8 was > 100 µM (inactive) throughout. The GI50 was 0.579 µM (active) in the test on SK-MEL-5; 13.7 µM (inactive) in the test with T47D; > 100 µM (inactive) with TK-10; > 100 µM (inactive) with UACC-62; > 100 µM (inactive) with UO-31.

As for `COC(=O)/C=C/c1ccc2nncnc2c1.COC(=O)/C=C\c1ccc2nncnc2c1`, the GI50 in the test on EKVX is > 100 µM (inactive); with HL-60, 96.4 µM (inactive); in the test with HOP-62 it was 70.5 µM (inactive); in the test on HT-29, 20 µM (inactive); in the test with Hs-578T it was 9.14 µM (inactive); in the test on K562, 43 µM (inactive). Moreover, the GI50 with MCF7 is 42.5 µM (inactive); in the test with NCI-H522, 28.5 µM (inactive); in the test with OVCAR-3 it was 32.7 µM (inactive); in the test with OVCAR-4, > 100 µM (inactive); in the test with OVCAR-5, > 100 µM (inactive); in the test on OVCAR-8, 57.9 µM (inactive). In addition, the GI50 with SK-MEL-5 is 8.17 µM (inactive); in the test with SNB-75 it was 18.7 µM (inactive); with T47D, 98.4 µM (inactive); with TK-10, > 100 µM (inactive); in the test on UACC-62 it was 15.7 µM (inactive); in the test on UO-31, 56.1 µM (inactive).

As for `COc1c(CC=C(C)C)c(O)c(C(CC(C)C)c2c(O)c3c(c(C(C)=O)c2O)OC(C(C)(C)O)C3)c(O)c1C(C)=O` (stereo not drawn), the GI50 is 3.76 µM (inactive) in the test on EKVX; 3.52 µM (inactive) in the test with HL-60; 5.2 µM (inactive) in the test on HOP-62; 4.86 µM (inactive) in the test with HT-29; 3.94 µM (inactive) in the test on Hs-578T; 2.6 µM (inactive) in the test on K562. Further, the GI50 is 3.61 µM (inactive) in the test on MCF7; 3.91 µM (inactive) in the test on Malme-3M; 3.42 µM (inactive) in the test with NCI-H522; 6.08 µM (inactive) in the test with OVCAR-3; 4.57 µM (inactive) in the test on OVCAR-4; 6.93 µM (inactive) in the test on OVCAR-5. Besides, the GI50 with OVCAR-8 was 4.4 µM (inactive); in the test with SK-MEL-5 it was 2.22 µM (inactive); in the test on SNB-75, 4.92 µM (inactive); with T47D, 3.46 µM (inactive); in the test on UACC-62 it was 4.94 µM (inactive); in the test with UO-31, 4.32 µM (inactive).

As for `Cn1c2c(c3ccccc31)CCN1C(=O)C3SC21C1C(=O)N(c2ccccc2)C(=O)C31` (stereo not drawn), the GI50 with EKVX was > 100 µM (inactive); in the test on HL-60 it was 25 µM (inactive); in the test on HOP-62 it was > 100 µM (inactive); in the test with HT-29 it was > 100 µM (inactive); with Hs-578T, > 100 µM (inactive); in the test with K562, 40.4 µM (inactive). Further, the GI50 with MCF7 is 30.4 µM (inactive); with Malme-3M it was > 100 µM (inactive); in the test on NCI-H522, > 100 µM (inactive); in the test on OVCAR-3 it was > 100 µM (inactive); with OVCAR-4, > 100 µM (inactive); in the test on OVCAR-5 it was > 100 µM (inactive). For the same compound, the GI50 in the test on OVCAR-8 was > 100 µM (inactive); in the test on SK-MEL-5, 20.4 µM (inactive); in the test on T47D it was > 100 µM (inactive); with TK-10, 23.8 µM (inactive); in the test on UACC-62, 21.5 µM (inactive); in the test with UO-31, > 100 µM (inactive).

With `Cc1cc(S(=O)(=O)NC(=C(C#N)C#N)[n+]2ccc(N(C)C)cc2)c([S-])cc1Cl`, the GI50 in the test with EKVX, in the test on HL-60, in the test with HOP-62, in the test on HT-29, in the test on Hs-578T and in the test with K562 was > 100 µM (inactive) each time. For the same compound, the GI50 in the test on MCF7 is > 100 µM (inactive); in the test with Malme-3M, > 100 µM (inactive); with NCI-H522, 42.3 µM (inactive); in the test on OVCAR-3 it was > 100 µM (inactive); with OVCAR-4, 99.5 µM (inactive); in the test on OVCAR-5, > 100 µM (inactive). Moreover, the GI50 in the test with OVCAR-8, in the test with SK-MEL-5, in the test on T47D, in the test on TK-10, in the test on UACC-62 and with UO-31 was > 100 µM (inactive) throughout.

Consider `COc1ccc(CCNC(=O)Cc2ccccc2CCO)cc1OC`, for which the GI50 in the test with EKVX, with HL-60, in the test with HOP-62, with HT-29, in the test on Hs-578T and in the test on K562 was > 100 µM (inactive) in each case. For the same compound, the GI50 is > 100 µM (inactive) in the test on MCF7; > 100 µM (inactive) with NCI-H522; > 100 µM (inactive) in the test with OVCAR-3; 41.8 µM (inactive) in the test on OVCAR-4; > 100 µM (inactive) with OVCAR-5; > 100 µM (inactive) in the test with OVCAR-8. In addition, the GI50 in the test on SK-MEL-5, in the test with SNB-75, with T47D, in the test on TK-10, in the test on UACC-62 and in the test with UO-31 was > 100 µM (inactive) each time.

Turning to `CC(=O)O[C@H]1C[C@H]2[C@@H]([C@H](OC(C)=O)C[C@@H]3CC4(CC[C@@]32C)OOC2(CCCCC2)OO4)[C@@H]2CC[C@H]([C@H](C)CCC(N)=O)[C@@]12C`, the GI50 is 1.49 µM (inactive) with EKVX; 1.69 µM (inactive) in the test on HL-60; 0.817 µM (active) in the test with HOP-62; 3.4 µM (inactive) with HT-29; 5.47 µM (inactive) with Hs-578T; 2.05 µM (inactive) in the test with K562. Moreover, the GI50 was 2.61 µM (inactive) with MCF7; 2.76 µM (inactive) with Malme-3M; 0.55 µM (active) in the test with NCI-H522; 1.54 µM (inactive) in the test with OVCAR-3; 1.78 µM (inactive) in the test on OVCAR-4; 2.34 µM (inactive) with OVCAR-5. Further, the GI50 with OVCAR-8 is 2.14 µM (inactive); in the test on SK-MEL-5 it was 2.15 µM (inactive); with SNB-75, 2.28 µM (inactive); in the test with T47D, 1.63 µM (inactive); in the test on TK-10, 2.6 µM (inactive); in the test with UACC-62 it was 2.7 µM (inactive).

In the case of `CC(C)=CCC[C@](C)(O[C@@H]1O[C@H](CO)[C@@H](O)[C@H](O)[C@H]1O)[C@H]1CC[C@]2(C)[C@@H]1[C@H](O)C[C@@H]1[C@@]3(C)CC[C@@H](O)C(C)(C)[C@@H]3[C@@H](O[C@@H]3O[C@H](CO)[C@@H](O)[C@H](O)[C@H]3O)C[C@]12C.C[C@@H]1O[C@@H](O[C@H]2[C@H](O[C@H]3C[C@]4(C)[C@H](C[C@H](O)[C@@H]5[C@@H]([C@@]6(C)CC[C@H](C(C)(C)O)O6)CC[C@]54C)[C@@]4(C)CC[C@H](O)C(C)(C)[C@H]34)O[C@H](CO)[C@@H](O)[C@@H]2O)[C@H](O)[C@H](O)[C@H]1O`, the GI50 with EKVX, in the test on HL-60, in the test with HOP-62, with HT-29, in the test on Hs-578T and in the test on K562 was > 100 µM (inactive) throughout. Further, the GI50 was > 100 µM (inactive) in the test on MCF7; > 100 µM (inactive) with NCI-H522; 24.9 µM (inactive) in the test on OVCAR-3; > 100 µM (inactive) with OVCAR-4; > 100 µM (inactive) in the test on OVCAR-5; > 100 µM (inactive) in the test with OVCAR-8. For the same compound, the GI50 with SK-MEL-5, in the test with SNB-75, in the test on T47D, in the test with TK-10, in the test on UACC-62 and in the test with UO-31 was > 100 µM (inactive) in each case.
